SMILES strings stand for the structures. Structures can show the parent of a compound that is named as a salt. Where two headings read alike, the source gives them in different places.

One test has as its target acetylcholinesterase (Homo sapiens, UniProt P22303). Put plainly: biochemical.
Test [1] concerns scopolamine Induced Memory Deficit. Put plainly: Dark Avoidance Assay (scopolamine-impaired memory). The test is classed as in vivo. The note with it: mice, retested 24 hours later. The protocol:
This utility of the compounds of the present invention mentioned above can also be ascertained by determining the ability of these compounds to restore cholinergically deficient memory in the Dark Avoidance Assay. In this assay mice are tested for their ability to remember an unpleasant stimulus for a period of 24 hours. A mouse is placed in a chamber that contains a dark compartment; a strong incandescent light drives it to the dark compartment, where an electric shock is administered through metal plates on the floor. The animal is removed from the testing apparatus and tested again, 24 hours later, for the ability to remember the electric shock.
If scopolamine, an anticholinergic that is known to cause memory impairment, is administered before an animal's initial exposure to the test chamber, the animal re-enters the dark compartment shortly after being placed in the test chamber 24 hours later. This effect of scopolamine is blocked by an active test compound, resulting in a greater interval before re-entry in the dark compartment.
The results for an active compound are expressed as the percent of a group of animals in which the effect of scopolamine is blocked, as manifested by an increased interval between being placed in the test chamber and re-entering the dark compartment.

[2] abbreviates: photometric method of Ellman et al., read-out: IC50, Cholinesterase Inhibition.

acetylcholinesterase, sequence (P22303 32-614): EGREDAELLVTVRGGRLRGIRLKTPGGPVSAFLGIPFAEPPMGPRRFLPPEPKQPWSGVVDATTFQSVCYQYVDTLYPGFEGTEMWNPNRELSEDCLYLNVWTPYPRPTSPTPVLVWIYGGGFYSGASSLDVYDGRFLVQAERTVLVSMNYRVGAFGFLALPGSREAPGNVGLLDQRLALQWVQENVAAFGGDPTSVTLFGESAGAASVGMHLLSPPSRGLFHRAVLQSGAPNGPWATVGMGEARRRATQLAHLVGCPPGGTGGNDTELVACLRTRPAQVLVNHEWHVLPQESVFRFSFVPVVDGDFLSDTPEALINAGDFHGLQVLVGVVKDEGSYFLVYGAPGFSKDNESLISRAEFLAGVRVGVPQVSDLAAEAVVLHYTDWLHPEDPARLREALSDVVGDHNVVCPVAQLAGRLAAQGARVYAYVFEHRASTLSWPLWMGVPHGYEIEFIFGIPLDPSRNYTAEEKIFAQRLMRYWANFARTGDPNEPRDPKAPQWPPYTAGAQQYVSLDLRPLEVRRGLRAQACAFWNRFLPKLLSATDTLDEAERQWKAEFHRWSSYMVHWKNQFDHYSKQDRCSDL

Take `Nc1c2c(nc3ccccc13)CCOC2` [10-Amino-3,4-dihydro-1H-pyrano[4,3-b]quinoline fumarate]: the half-maximal inhibitory concentration (IC50) at acetylcholinesterase (setting [2]) is 0.2 µM.

Turning to `Nc1c2c(nc3ccccc13)CCS2` [9-amino-2,3-dihydrothieno[3,2-b]quinoline], the IC50 on acetylcholinesterase (setting [2]) is 0.44 µM.

On to `Nc1c2c(nc3cc(C(F)(F)F)ccc13)CCSC2` [10-amino-3,4-dihydro-7-trifluoromethyl-1H-thiopyrano[4,3-b]quinoline], for which the IC50 against acetylcholinesterase was 0.64 µM.

For `Cc1ccc2c(N)c3c(nc2c1)CCSC3` [10-amino-3,4-dihydro-7-methyl-1H-thiopyrano[4,3-b]quinoline], the IC50 at acetylcholinesterase (setting [2]) came to 0.19 µM.

With `Nc1c2c(nc3cc(F)ccc13)CCSC2` [10-amino-3,4-dihydro-7-fluoro-1H-thiopyrano [4,3-b]quinoline], the concentration for half-maximal inhibition (IC50) at acetylcholinesterase (setting [2]) turned out to be 0.15 µM. Also, the “% of animals with scopolamine Induced Memory Deficit Reversed” value (“% of animals” for short) in test [1] (dose 0.31 mg/kg body weight) worked out at 67%.

Take `Nc1c2c(nc3ccccc13)CSC2` [9-Amino-1,3-dihydrothieno[3,4-b]quinoline]: at acetylcholinesterase (setting [2]), the 50% inhibitory concentration (IC50) is 0.047 µM. For the same molecule, in test [1] (dose 0.31 mg/kg body weight), the “% of animals” value was found to be 14%.

Regarding `CNC(=O)Oc1ccc2c(c1)[C@]1(C)CCN(C)[C@@H]1N2C` [Physostigmine, reference compound], the “% of animals” value in test [1] (dose 0.31 mg/kg body weight) is recorded as 20%.

`Nc1c2c(nc3ccccc13)CCSC2` [10-amino-3,4-dihydro-1H-thiopyrano[4,3-b]quinoline]: the IC50 on acetylcholinesterase (setting [2]) is 0.97 µM. Besides, the “% of animals” value in test [1] (dose 0.16 mg/kg body weight) is 27%.

`c1ccc(CNc2c3c(nc4ccccc24)CCSC3)cc1` [10-benzylamino-3,4-dihydro-1H-thiopyrano[4,3-b]quinoline hydrochloride] gave an IC50 against acetylcholinesterase of 3.9 µM.

The record behind these values is patent US4843079A, “Fused heteroalkylene quinolinamines” (Hoechst-Roussel Pharmaceuticals, Inc., priority 1988, dated 1989).
